According to patent US20240335429A1, “MOLECULAR GLUE AND SALL4 DEGRADER” (National University of Singapore, priority 2021, published 2024):

Columns and labels:
SALL4A = biological target: T1, SALL4A (Homo sapiens, UniProt Q9UJQ4); assay: Immunoblot of endogenous SALL4A in SNU-398 HCC cells; assay type: cell-based; conditions: SNU-398 cells, 24 h, immunoblot quantification
T1 construct: endogenous in cells; host or cells: SNU-398 HCC cells
T1 sequence (Q9UJQ4 1-1053): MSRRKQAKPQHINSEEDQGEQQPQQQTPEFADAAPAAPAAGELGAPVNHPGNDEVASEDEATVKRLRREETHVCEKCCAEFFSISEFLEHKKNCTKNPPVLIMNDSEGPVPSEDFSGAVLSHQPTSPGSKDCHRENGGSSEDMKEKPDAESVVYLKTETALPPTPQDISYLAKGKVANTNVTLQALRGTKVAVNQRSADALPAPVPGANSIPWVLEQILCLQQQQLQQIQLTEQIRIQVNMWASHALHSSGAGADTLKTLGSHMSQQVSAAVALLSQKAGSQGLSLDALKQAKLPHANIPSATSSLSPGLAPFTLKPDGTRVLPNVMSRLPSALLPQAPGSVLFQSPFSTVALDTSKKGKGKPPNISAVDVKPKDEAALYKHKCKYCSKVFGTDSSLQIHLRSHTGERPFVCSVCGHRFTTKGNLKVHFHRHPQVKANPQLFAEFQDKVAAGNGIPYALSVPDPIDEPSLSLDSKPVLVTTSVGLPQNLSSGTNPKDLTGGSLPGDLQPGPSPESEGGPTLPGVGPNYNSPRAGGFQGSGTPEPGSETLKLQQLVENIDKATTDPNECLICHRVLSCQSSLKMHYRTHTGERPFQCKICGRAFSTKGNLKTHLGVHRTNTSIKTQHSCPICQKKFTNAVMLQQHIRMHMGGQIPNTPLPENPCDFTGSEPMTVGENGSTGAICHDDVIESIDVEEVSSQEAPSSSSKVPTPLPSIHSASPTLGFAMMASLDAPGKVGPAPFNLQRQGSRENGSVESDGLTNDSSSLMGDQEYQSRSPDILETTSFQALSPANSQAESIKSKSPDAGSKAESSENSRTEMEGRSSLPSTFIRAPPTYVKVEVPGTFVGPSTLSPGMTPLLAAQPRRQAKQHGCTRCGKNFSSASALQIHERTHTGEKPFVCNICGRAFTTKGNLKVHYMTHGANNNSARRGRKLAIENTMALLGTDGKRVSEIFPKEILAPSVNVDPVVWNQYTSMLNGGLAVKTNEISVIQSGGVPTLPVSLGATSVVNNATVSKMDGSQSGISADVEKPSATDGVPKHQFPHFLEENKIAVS
Experimental: (§1) RIPA buffer containing freshly added protease inhibitors (2 mM PMSF) and protease inhibitor cocktail was used for cell lysis. The lysed cells were incubated for 10 min on ice and subsequently centrifuged at 4° C. for 10 min at 14,000 rpm. The protein concentrations of cell lysates were assessed using Bradford Assay as per manufacturer's instructions. The samples were denatured using 4× Sample buffer at 95° C. for 5 min. The samples were size resolved using polyacrylamide gel (8%) and Mini-PROTEAN Tetra Cell module. The size-resolved proteins were transferred onto PVDF via electroblotting using Mini Trans-Blot® module. The membrane was blocked using 5% BSA in TBST. The membrane was incubated with appropriate primary antibody (overnight) and secondary antibody (1 h). Immobilon Crescendo Western HRP substrate was used for signal development and images were acquired using darkroom development techniques.
A head-to-head comparison between the newly discovered SALL4 degrader QE-18-WG07 and IMiDs (Pomalidomide and Thalidomide) was performed. […]

c-myc = assay: Immunoblot of c-myc (SALL4 downstream target) in SNU-398 cells; assay type: cell-based, human; conditions: Homo sapiens; SNU-398 HCC cells, 24 h treatment; read-out: suppression of SALL4 downstream target c-myc, IC50
Experimental: as §1

CRBN = biological target: T2, CRBN (Homo sapiens, UniProt Q96SW2); assay: Cellular Thermal Shift Assay (CETSA) in SNU-398 cell lysates; assay type: binding; conditions: from 51 to 56° C., read-out: overall thermal shift of CRBN
T2 construct: endogenous in cells; host or cells: SNU-398 cell lysate
Experimental: Cells were washed with cold PBS and harvested into 50 mL tubes and centrifuged at 1,200×g for 5 min. For cell lysis, cells were resuspended in 1× NP-40 lysis buffer containing 10 mM Tris-HCl (pH 7.4), 150 mM NaCl, 2.7 mM KCl and 0.4% NP-40, and rotated end-over-end at 4° C. for 30 min. The cell lysate was centrifuged at 20,000 rpm for 10 min at 4° C. and the supernatant was collected. The cell lysate was divided into two aliquots, with one aliquot being treated with QE-18-WG07, and the other aliquot with DMSO control. After specific incubation time at room temperature, the respective lysates were divided into smaller aliquots of 40 μL and heated individually at different temperatures (51-56° C.) for 3 min in a thermal cycler, followed by a 3-min cool-down at room temperature. The heated lysates were centrifuged at 15,000 rpm for 10 min at 4° C. to separate the soluble fractions from the precipitates. The supernatants were transferred to new microtubes and analyzed by SDS-PAGE, followed by western blot analysis described in Example 4. The integrated band intensities were quantified by ImageJ. The thermal curves were analyzed by nonlinear regression using Graph Pad Prism.

[1] = HCC mouse xenograft, tolerability (body, spleen, liver weight); assay type: in vivo
Experimental: Animals were maintained, and all animal work were performed following the protocols approved by the Institutional Animal Care and Use Committee. The SNU-398 cell line was cultured as described above in ‘Cell Culture’. To establish the SNU-398 xenografts, NOD.Cg−Prkdc^sc^i^dIl2rg^tm^1^Wjl/Sz (NSG) female mice (6-8 weeks) were anesthetized using 2% isoflurane USP, and 0.5×10^6 SNU-398 cells in 200 μL of 1:1 RPMI:Matrigel were subcutaneously injected to the mouse flanks. When tumors were palpable, mice were randomized to receive either QE treatment or vehicle containing 5% DMSO, 12.5% Ethanol, and 12.5% Cremophor EL in 70% 1× PBS. Freshly prepared vehicle or QE-18-WG07 was administered by intraperitoneal (IP) injection, once daily (qd) at 10 mg/kg in the pilot study and 5, 15, and 45 mg/kg for dose-expansion studies. Before each drug injection, mouse weight and tumor volume were monitored. Mice were euthanized once tumors reached more than 1.5 cm in diameter. The tumors were harvested, imaged and snap-frozen for storage at −80° C. until later use.

T2 sequence (Q96SW2 whole entry): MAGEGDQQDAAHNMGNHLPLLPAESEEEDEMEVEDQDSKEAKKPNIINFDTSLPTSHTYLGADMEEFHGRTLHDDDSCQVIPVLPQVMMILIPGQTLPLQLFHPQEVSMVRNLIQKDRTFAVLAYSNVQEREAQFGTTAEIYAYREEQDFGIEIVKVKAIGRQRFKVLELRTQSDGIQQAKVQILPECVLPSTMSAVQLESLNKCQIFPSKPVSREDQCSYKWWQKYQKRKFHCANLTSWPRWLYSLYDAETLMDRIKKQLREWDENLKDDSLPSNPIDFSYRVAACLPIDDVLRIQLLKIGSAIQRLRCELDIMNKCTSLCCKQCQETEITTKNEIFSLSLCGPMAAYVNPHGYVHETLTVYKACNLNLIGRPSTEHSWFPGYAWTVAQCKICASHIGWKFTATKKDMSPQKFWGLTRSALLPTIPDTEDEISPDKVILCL

COc1ccccc1NC(=O)Nc1ccc([N+](=O)[O-])cc1O [QE-18-WG07]
DC50 (SALL4A): ~4.23 µM | Dmax (SALL4A): 57% | IC50 (c-myc): ~5.12 µM | ΔTm at 50 µM (CRBN): ≤ 5 °C | tolerability (animal weight preservation, normal spleen weight) ([1]; 10 mg/kg daily, 10 days): well tolerated | weight loss in mice compared to vehicle ([1]; 10 mg/kg q.d., 10 days): did not induce significant weight loss | tolerability (negligible weight loss, normal spleen and liver weight) ([1]; 45 mg/kg daily, 2 weeks): well tolerated | weight loss in mice ([1]; 5, 15 and 45 mg/kg q.d., 15 days): did not induce significant weight loss
